# Biological target: T1, full-length human PKCι (Homo sapiens, UniProt P41743)
# T1 construct: Recombinant, full-length human PKCι expressed in Sf21 insect cells is also commercially available; purchased; host or cells: Sf21 insect cells
# T1 sequence (P41743 1-596): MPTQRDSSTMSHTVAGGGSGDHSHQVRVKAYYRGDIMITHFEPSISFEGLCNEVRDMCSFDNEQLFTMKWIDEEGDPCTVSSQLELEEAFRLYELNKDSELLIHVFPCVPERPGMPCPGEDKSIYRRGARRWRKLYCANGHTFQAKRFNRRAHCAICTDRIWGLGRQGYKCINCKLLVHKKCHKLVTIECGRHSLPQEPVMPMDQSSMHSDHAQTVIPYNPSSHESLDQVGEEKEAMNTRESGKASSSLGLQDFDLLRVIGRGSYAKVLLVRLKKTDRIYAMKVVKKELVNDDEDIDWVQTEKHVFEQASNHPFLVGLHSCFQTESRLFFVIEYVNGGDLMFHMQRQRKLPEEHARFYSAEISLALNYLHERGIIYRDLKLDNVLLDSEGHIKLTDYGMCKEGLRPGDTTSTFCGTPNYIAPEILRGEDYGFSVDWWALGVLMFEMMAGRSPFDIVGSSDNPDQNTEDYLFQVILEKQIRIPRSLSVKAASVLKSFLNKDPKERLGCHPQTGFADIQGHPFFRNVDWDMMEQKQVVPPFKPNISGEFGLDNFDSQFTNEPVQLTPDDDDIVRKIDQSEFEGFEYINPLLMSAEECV
# Test: PKCι IC50 IMAP assay, full-length PKCι at 150 μM ATP
# Assay type: biochemical
# Conditions: read-out: IC50 in IMAP assay against full length PKCi at 150 μM ATP
# Description: Assays are based on the ability of PKCι to phosphorylate a commercially available peptide substrate in vitro. The peptide substrate is FAM-PKCε pseudopeptide derived peptide, and comprises the amino acid sequence 5FAM-[…]-NH2. Recombinant, full-length human PKCι expressed in Sf21 insect cells is also commercially available. Recombinant, kinase-domain human PKCι is expressed and purified in-house.
# The procedure below explains how dose response curves for inhibitors of PKCι are obtained. The screen described is for a 384 well format but the assay can be adapted to 1536 or other formats as required.
# Compounds to be tested are dissolved in 100% DMSO. Compounds are diluted as required to give a final concentration of 4% DMSO (v/v) in the assay. 1 μl is plated into 384 well black low-binding flat bottomed assay plates which are used immediately. Dilutions and additions of compound to assay plates are carried out using Matrix WellMate® and Matrix PlateMate® Plus liquid handling systems.
# On the day of the screen PKCι/substrate working solution, and ATP working solution, are prepared in buffer containing 20 mM tris-HCl pH7.5, 10 mM MgCl2, 0.01% Triton X100, 250 μM EGTA and 1 mM DTT. The final concentration of PKCι used varies depending on the batch of protein but is typically 15 pM. The final concentration of peptide substrate in the assay is 100 nM. ATP is used at a final concentration of 150 μM or 25 μM in the assays containing full-length or kinase-domain PKCι respectively, which corresponds to five times or equal to the KM^APP for ATP for each enzyme, respectively. The final buffer concentration in the assay is 18 mM tris-HCl pH7.5, 9 mM MgCl2, 0.009% Triton X100, 225 μM EGTA and 0.9 mM DTT. Relevant controls are included, namely no compound and no enzyme. 5 μl PKCι/substrate working solution at 30 pM and 200 nM, respectively, is added to the wells, followed by 4 μl ATP working solution at 375 μM or 62.5 μM for full-length or kinase-domain PKCι respectively, using a 16 channel Matrix pipette. The reaction is allowed to incubate for 60 minutes at room temperature, before the reaction is stopped and developed by the addition of 20 μl IMAP™ development reagent (Molecular Devices). IMAP development reagent consists of 0.25% (v/v) IMAP progressive binding reagent, 17% (v/v) IMAP progressive binding buffer A and 3% (v/v) IMAP progressive binding buffer B. The plates are then incubated for 2 hours at room temperature before being read using an appropriate plate reader, for example a Molecular Devices HT Analyst or a BMG Pherastar. Plates are read using a fluorescence polarisation protocol with excitation at 485 nm and emission at 530 nm, and dichroic mirror at 505 nm.
# Percentage inhibition values are calculated from fluorescence polarisation values, using the no compound and no enzyme control values as 0% and 100% inhibition, respectively. IC50 determination is performed with ExcelFit software (IDBS) using curve fit 205. Z′ factors are determined for each plate tested and are all above 0.5.
row,IC50 [µM],SMILES
1,< 0.1,"N[C@H](CNc1nc(-c2ccncc2)nc2c(Cl)nccc12)Cc1ccccc1 [Example 11, N-[(2S)-2-amino-3-phenylpropyl]-8-chloro-2-(pyridin-4-yl)pyrido[3,4-d]-pyrimidin-4-amine]"
2,< 0.1,"N[C@H](CNc1nc(-c2ccncc2)nc2cnc(Cl)cc12)Cc1ccccc1 [Example 12, N-[(2S)-2-amino-3-phenylpropyl]-6-chloro-2-(pyridin-4-yl)pyrido[3,4-d]-pyrimidin-4-amine]"
3,1 to 10,"Clc1cc2c(N3CCNCC3)nc(-c3ccncc3)nc2cn1 [Example 13, 1-[6-chloro-2-(pyridin-4-yl)-pyrido[3,4-d]-pyrimidin-4-yl]piperazine]"
4,1 to 10,"O[C@H](CNc1nc(-c2ccncc2)nc2cnccc12)Cc1ccccc1 [Example 15, (2S)-1-phenyl-3-{[2-(pyridin-4-yl)pyrido[3,4-d]-pyrimidin-4-yl]-amino}propan-2-ol]"
5,0.1 to 1,"c1ccc(C[C@H]2CN(c3nc(-c4ccncc4)nc4cnccc34)CCN2)cc1 [Example 16, (3S)-3-benzyl-1-[2-(pyridin-4-yl)pyrido[3,4-d]-pyrimidin-4-yl]-piperazine]"
6,1 to 10,"c1ccc(C[C@@H]2CN(c3nc(-c4ccncc4)nc4cnccc34)CCN2)cc1 [Example 17, (3R)-3-benzyl-1-[2-(pyridin-4-yl)-pyrido[3,4-d]-pyrimidin-4-yl]-piperazine]"
7,10 to 40,"CN1CCN(c2nc(-c3ccncc3)nc3cnccc23)CC1 [Example 18, 1-methyl-4-[2-(pyridin-4-yl)-pyrido[3,4-d]-pyrimidin-4-yl]-piperazine]"
8,10 to 40,"CN1CCCN(c2nc(-c3ccncc3)nc3cnccc23)CC1 [Example 19, 1-methyl-4-[2-(pyridin-4-yl)-pyrido[3,4-d]-pyrimidin-4-yl]-1,4-diazepane]"
9,10 to 40,"c1ccc(C[C@H]2CN(Cc3ccccc3)CCN2c2nc(-c3ccncc3)nc3cnccc23)cc1 [Example 20, (2S)-2,4-dibenzyl-1-[2-(pyridin-4-yl)-pyrido[3,4-d]-pyrimidin-4-yl]-piperazine]"
10,10 to 40,"c1cc(-c2nc(N3CCOCC3)c3ccncc3n2)ccn1 [Example 21, 4-[2-(pyridin-4-yl)pyrido[3,4-d]-pyrimidin-4-yl]morpholine]"
11,10 to 40,"CC(C)(C)OC(=O)N1CCN(c2nc(-c3ccncc3)nc3cnccc23)CC1 [Example 22, tert-butyl 4-[2-(pyridin-4-yl)-pyrido[3,4-d]-pyrimidin-4-yl]-piperazine-1-carboxylate]"
12,10 to 40,"CC(C)(C)OC(=O)N1CCCN(c2nc(-c3ccncc3)nc3cnccc23)CC1 [Example 23, tert-butyl 4-[2-(pyridin-4-yl)-pyrido[3,4-d]pyrimidin-4-yl]-1,4-diazepane-1-carboxylate]"
13,10 to 40,"c1cc(-c2nc(N3CCSCC3)c3ccncc3n2)ccn1 [Example 24, 4-[2-(pyridin-4-yl)pyrido[3,4-d]-pyrimidin-4-yl]-thiomorpholine]"
14,0.1 to 1,"CN(C)[C@H](CNc1nc(-c2ccncc2)nc2cnccc12)Cc1ccccc1 [Example 25, N,N-Dimethyl[(2S)-1-phenyl-3-{[2-(pyridin-4-yl)-pyrido[3,4-d]-pyrimidin-4-yl]-amino}propan-2-yl]amine]"
15,10 to 40,"CN(C[C@@H](N)Cc1ccccc1)c1nc(-c2ccncc2)nc2cnccc12 [Example 26, N-[(2S)-2-amino-3-phenylpropyl]-N-methyl-2-(pyridin-4-yl)pyrido[3,4-d]-pyrimidin-4-amine]"
16,10 to 40,"O=C1CN(c2nc(-c3ccncc3)nc3cnccc23)CCN1 [Example 27, 4-[2-(pyridin-4-yl)pyrido[3,4-d]-pyrimidin-4-yl]-piperazin-2-one]"
17,0.1 to 1,"NC[C@H](Cc1ccccc1)Nc1nc(-c2ccncc2)nc2cnccc12 [Example 28, N-[(2S)-1-amino-3-phenylpropan-2-yl]-2-(pyridin-4-yl)-pyrido[3,4-d]-pyrimidin-4-amine]"
18,1 to 10,"c1ccc(C[C@@H]2CNCCN2c2nc(-c3ccncc3)nc3cnccc23)cc1 [Example 29, (2R)-2-benzyl-1-[2-(pyridin-4-yl)-pyrido[3,4-d]-pyrimidin-4-yl]-piperazine]"
19,1 to 10,"COc1cncc2nc(-c3ccncc3)nc(N3CCN[C@@H](Cc4ccccc4)C3)c12 [Example 30, (3S)-3-benzyl-1-[5-methoxy-2-(pyridin-4-yl)-pyrido[3,4-d]-pyrimidin-4-yl]-piperazine]"
20,0.1 to 1,"COc1cncc2nc(-c3ccncc3)nc(N3CCNCC3)c12 [Example 31, 1-[5-methoxy-2-(pyridin-4-yl)-pyrido[3,4-d]-pyrimidin-4-yl]-piperazine]"
21,0.1 to 1,"Clc1nccc2c(N3CCNCC3)nc(-c3ccncc3)nc12 [Example 32, 1-[8-chloro-2-(pyridin-4-yl)-pyrido[3,4-d]-pyrimidin-4-yl]-piperazine]"
22,1 to 10,"c1cc(-c2nc(N3CCCNCC3)c3ccncc3n2)ccn1 [Example 33, 1-[2-(pyridin-4-yl)-pyrido[3,4-d]-pyrimidin-4-yl]-1,4-diazepane]"
23,10 to 40,"OCCN1CCN(c2nc(-c3ccncc3)nc3cnccc23)CC1 [Example 34, 2-{4-[2-(pyridin-4-yl)pyrido[3,4-d]-pyrimidin-4-yl]-piperazin-1-yl}-ethan-1-ol]"
24,10 to 40,"O[C@H]1CCN(c2nc(-c3ccncc3)nc3cnccc23)C1 [Example 35, (3S)-1-[2-(pyridin-4-yl)pyrido[3,4-d]-pyrimidin-4-yl]-pyrrolidin-3-ol]"
25,10 to 40,"O[C@@H]1CCN(c2nc(-c3ccncc3)nc3cnccc23)C1 [Example 36, (3R)-1-[2-(pyridin-4-yl)pyrido[3,4-d]-pyrimidin-4-yl]-pyrrolidin-3-ol]"
26,< 0.1,"COc1cncc2nc(-c3ccncc3)nc(N3CCN[C@H](Cc4ccccc4)C3)c12 [Example 37, (3R)-3-benzyl-1-[5-methoxy-2-(pyridin-4-yl)pyrido[3,4-d]pyrimidin-4-yl]piperazine]"
27,0.1 to 1,"c1ccc(C[C@H]2CNCCN2c2nc(-c3ccncc3)nc3cnccc23)cc1 [Example 38, (2S)-2-benzyl-1-[2-(pyridin-4-yl)-pyrido[3,4-d]-pyrimidin-4-yl]-piperazine]"
28,10 to 40,"COC(=O)[C@@H]1C[C@H](Nc2nc(-c3ccncc3)nc3cnccc23)CN1 [Example 39, methyl (2S,4S)-4-{[2-(pyridin-4-yl)pyrido[3,4-d]-pyrimidin-4-yl]-amino}pyrrolidine-2-carboxylate]"
29,1 to 10,"COC(=O)[C@@H]1C[C@H](NC(=O)[C@@H]2C[C@H](Nc3nc(-c4ccncc4)nc4cnccc34)CN2)CN1 [Example 40, methyl (2S,4S)-4-[(2S,4S)-4-{[2-(pyridin-4-yl)-pyrido[3,4-d]-pyrimidin-4-yl]-amino}pyrrolidine-2-amido]pyrrolidine-2-carboxylate]"
30,< 0.1,"CN[C@H](CNc1nc(-c2ccncc2)nc2cncc(OC)c12)Cc1ccccc1 [Example 41, [(2S)-1-{[5-methoxy-2-(pyridin-4-yl)-pyrido[3,4-d]-pyrimidin-4-yl]-amino}-3-phenylpropan-2-yl](methyl)amine]"
